From US20110097324A1, “COMPOSITIONS AND METHODS FOR MODULATING NICOTINIC/NMDA RECEPTOR FUNCTION” (CENTRE FOR ADDICTION AND MENTAL HEALTH, priority 2008, published 2011)

Legend:
[1] = test system: cultured hippocampal neurons; format: cell-based, rat; conditions: for mEPSC amplitude 30 min after treatment: glycine 200 μM 3 min, choline 1 mM, AP5 100 μM
Description: Primary cultures from hippocampus were prepared from fetal Wistar rats (embryonic day 17-19) on Cell+ (Sarstedt) culture dishes as previously described in (10). The cultures were used for experiments on 12-15 d after plating.
Miniature excitatory postsynaptic currents (mEPSCs) were recorded from cultured hippocampal neurons 2 to 4 weeks days after plating under whole-cell patch clamp configuration (11). Electrodes (3-5 MΩ) were pulled from high lead pipettes (Corning 8161, Warner Instruments). Cells were voltage clamped at −70 mV. Access resistance is below 10 MΩ, recordings with access resistance varying more than 10% were rejected from analysis.
To determine whether activation of α7-nAchR is physiologically relevant in regulating synaptic strength, we examined the ability of α7-nAchR activation to modulate miniature excitatory postsynaptic currents (mEPSCs) during LTP in primary cultures of hippocampal neurons. mEPSCs in hippocampal neurons were recorded under whole-cell configuration. […] The cells were held at −70 mV to avoid potential interference by voltage-gated Ca^++ channels (12,13).

NMDA receptor = format: cell-based, rat
CREB = format: cell-based, rat
Description: To confirm that α7 nAChR is responsible for the observed activation of CREB, we measured CREB activity in HEK-293 cells expressing α7 nAChR.

[2] = biological target: α7-nAchR-NR2A interaction (Rattus norvegicus, UniProt Q00959+Q05941); format: cell-based
α7-nAchR-NR2A interaction, sequence (Q05941 23-502, other chains not shown): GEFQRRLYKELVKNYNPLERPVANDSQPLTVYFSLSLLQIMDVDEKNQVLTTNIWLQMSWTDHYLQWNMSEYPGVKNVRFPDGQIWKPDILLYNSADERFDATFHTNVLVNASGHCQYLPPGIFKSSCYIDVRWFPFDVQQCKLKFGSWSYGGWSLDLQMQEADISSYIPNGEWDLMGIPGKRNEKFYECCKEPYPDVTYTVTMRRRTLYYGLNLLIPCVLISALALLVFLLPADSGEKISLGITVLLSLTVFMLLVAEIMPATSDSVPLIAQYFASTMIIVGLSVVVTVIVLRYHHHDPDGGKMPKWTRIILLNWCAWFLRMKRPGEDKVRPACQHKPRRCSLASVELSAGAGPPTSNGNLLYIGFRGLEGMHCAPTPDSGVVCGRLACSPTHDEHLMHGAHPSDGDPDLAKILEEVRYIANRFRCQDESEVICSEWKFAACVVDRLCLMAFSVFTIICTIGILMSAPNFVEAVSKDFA
α7-nAchR-NR2A interaction, sequence (Q00959 20-1464, other chains not shown): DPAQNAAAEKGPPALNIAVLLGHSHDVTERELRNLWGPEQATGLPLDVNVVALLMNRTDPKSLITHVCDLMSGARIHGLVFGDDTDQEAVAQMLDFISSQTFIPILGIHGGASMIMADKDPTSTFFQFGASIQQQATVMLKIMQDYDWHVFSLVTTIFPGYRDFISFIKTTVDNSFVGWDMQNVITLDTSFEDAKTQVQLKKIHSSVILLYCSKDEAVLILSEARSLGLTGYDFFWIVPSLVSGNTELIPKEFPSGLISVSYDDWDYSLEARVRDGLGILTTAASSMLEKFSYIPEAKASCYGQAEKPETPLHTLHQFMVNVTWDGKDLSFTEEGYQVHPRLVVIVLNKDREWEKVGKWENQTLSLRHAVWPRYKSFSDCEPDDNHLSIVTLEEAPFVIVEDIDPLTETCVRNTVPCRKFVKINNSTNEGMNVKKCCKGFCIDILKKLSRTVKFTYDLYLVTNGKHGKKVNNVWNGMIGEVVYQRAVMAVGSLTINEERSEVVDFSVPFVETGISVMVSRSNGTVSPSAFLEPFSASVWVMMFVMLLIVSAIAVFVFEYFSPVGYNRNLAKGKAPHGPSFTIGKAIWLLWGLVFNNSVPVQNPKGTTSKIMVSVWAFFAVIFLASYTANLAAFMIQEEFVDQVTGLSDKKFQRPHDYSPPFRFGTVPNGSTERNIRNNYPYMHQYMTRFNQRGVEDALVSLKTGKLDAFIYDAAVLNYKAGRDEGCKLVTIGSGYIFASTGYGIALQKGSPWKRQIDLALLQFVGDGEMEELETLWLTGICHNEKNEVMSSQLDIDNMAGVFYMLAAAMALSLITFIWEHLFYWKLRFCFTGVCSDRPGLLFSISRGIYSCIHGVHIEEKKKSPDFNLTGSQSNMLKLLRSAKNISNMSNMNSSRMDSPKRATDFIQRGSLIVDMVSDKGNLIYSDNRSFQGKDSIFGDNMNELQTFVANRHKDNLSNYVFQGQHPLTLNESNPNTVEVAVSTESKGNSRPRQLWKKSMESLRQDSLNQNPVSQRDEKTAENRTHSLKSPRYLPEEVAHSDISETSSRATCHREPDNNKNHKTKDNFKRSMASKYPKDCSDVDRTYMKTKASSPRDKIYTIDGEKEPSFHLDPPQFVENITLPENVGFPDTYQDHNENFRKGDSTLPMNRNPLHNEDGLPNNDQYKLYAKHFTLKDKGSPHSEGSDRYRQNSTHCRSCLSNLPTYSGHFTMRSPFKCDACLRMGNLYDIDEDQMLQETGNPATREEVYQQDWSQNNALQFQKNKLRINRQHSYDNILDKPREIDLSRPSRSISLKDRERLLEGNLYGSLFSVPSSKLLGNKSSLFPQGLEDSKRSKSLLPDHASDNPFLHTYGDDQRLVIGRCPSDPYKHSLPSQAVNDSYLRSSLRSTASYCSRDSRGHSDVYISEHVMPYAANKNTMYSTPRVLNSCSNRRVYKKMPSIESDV
Description: To examine the effect of α7-nAchR activation on the interaction between α7-nAchR and NMDA receptors, we examined the ability of antibody against NR2A subunit to co-precipitate with the α7-nAchR in hippocampal primary culture treated with 1 mM choline or choline/NMDA (50 μM).

α7 nAChR: NR2A complex = conditions: in vivo, 6 mg/kg/day
Description: Thus, we pretreated rats with either nicotine or saline for 7 days subdermally (osmotic mini-pump, 6 mg/kg/day), and the expression of NR2A and α7 nAChR was examined in Western blot analysis.

NC(CCCP(=O)(O)O)C(=O)O (stereo not drawn) [AP5]
effect on amplitude of mEPSCs [1]: can be abolished

C[C@]12N[C@H](Cc3ccccc31)c1ccccc12 [MK-801]
block of enhancement of whole cell current induced by co-application of choline with NMDA (NMDA receptor): can be blocked

CCN1C[C@]2(COC(=O)c3ccccc3N3C(=O)C[C@H](C)C3=O)CC[C@H](OC)[C@@]34[C@@H]5C[C@H]6[C@H](OC)[C@@H]5[C@](O)(C[C@@H]6OC)[C@](O)([C@@H](OC)[C@H]23)[C@@H]14 [MLA]
block of nicotine-enhanced CREB activity (CREB): can be blocked

CN[C@H](CC(=O)O)C(=O)O [NMDA, N-methyl-D-aspartate]
α7-nAchR-NR2A interaction after treatment [2]: no significant effect

C[N+](C)(C)CCO [choline]
mEPSC amplitude 30 min after treatment [1]: 31.4+/−2.7 pA

NCC(=O)O [glycine]
mEPSC amplitude 30 min after treatment [1]: 26.5+/−2.3 pA

CN1CCCC1c1cccnc1 (stereo not drawn) [nicotine]
expression of NR2A or α7 nAChR in rat hippocampus (α7 nAChR: NR2A complex): no significant difference | α7 nAChR: NR2A complex formation in rat hippocampus (α7 nAChR: NR2A complex): significantly enhanced

α-bungarotoxin
block of enhancement of whole cell current induced by co-application of choline with NMDA (NMDA receptor): can abolish the choline induced upregulation of NMDA-mediated current
